This is an account of results in patent US20120225061A1, “TETRASUBSTITUTED CYCLOHEXYL COMPOUNDS AS KINASE INHIBITORS” (priority 2011, published 2012).

The target of experiment [1] is T1, Pim1 kinase (Homo sapiens, UniProt P11309). The experiment in a line: KinaseGlo Pim1 ATP depletion assay. The note with it: Table 4, 2.5 nM PIM1, 20 μM ATP, 40 μM BAD peptide. Type of experiment: biochemical. The procedure: The activity of PIM1 is measured using a luciferase-luciferin based ATP detection reagent to quantify ATP depletion resulting from kinase-catalyzed phosphoryl transfer to a peptide substrate. Compounds to be tested are dissolved in 100% DMSO and directly distributed into white 384-well plates at 0.5 μl per well. […] After 15 minutes, 10 μl of 40 μM ATP in assay buffer is added. […] The reaction is performed until approximately 50% of the ATP is depleted, then stopped with the addition of 20 μl KinaseGlo Plus (Promega Corporation) solution. The stopped reaction is incubated for 10 minutes and the remaining ATP detected via luminescence on the Victor2 (Perkin Elmer).

The target in experiment [2] is T2, Pim2 kinase (Homo sapiens, UniProt Q9P1W9). In words: KinaseGlo Pim2 ATP depletion assay. The note with it: Table 4, 5 nM PIM2, 4 μM ATP, 10 μM BAD peptide. It is filed as biochemical. The procedure:
(§1) The activity of PIM2 is measured using a luciferase-luciferin based ATP detection reagent to quantify ATP depletion resulting from kinase-catalyzed phosphoryl transfer to a peptide substrate. Compounds to be tested are dissolved in 100% DMSO and directly distributed into white 384-well plates at 0.5 μl per well. […] After 15 minutes, 10 μl of 8 μM ATP in assay buffer is added. Final assay concentrations are 5 nM PIM2, 4 μM ATP, 10 μM BAD peptide and 2.5% DMSO. The reaction is performed until approximately 50% of the ATP is depleted, then stopped with the addition of 20 μl KinaseGlo Plus (Promega Corporation) solution. The stopped reaction is incubated for 10 minutes and the remaining ATP detected via luminescence on the Victor2 (Perkin Elmer).
(In general: Kinase-Glo reads ATP consumption through a luciferase reaction.)

Experiment [3] deals with T3, Pim3 kinase (Homo sapiens, UniProt Q86V86). In words: KinaseGlo Pim3 ATP depletion assay. It is filed as biochemical. The note with it: Table 4, 40 μM ATP, 100 μM BAD peptide. The procedure: as §1, with “of PIM3” for “of PIM2”, “of 80” for “of 8”, “nM PIM1, 40” for “nM PIM2, 4”, “ATP, 100” for “ATP, 10”, “stopped by” for “stopped with”
In experiment [4] the test system is KMS11 (human myeloma cell line). The experiment in a line: Cell proliferation assay (CellTiter-Glo) in KMS11 cells. Conditions: KMS-11, 72 h, read-out: KMS11-luc EC50. Type of experiment: cell-based. The method in brief: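 KMS11 cells at 2000 per well in IMDM/10% FBS were exposed to compound for 3 days. Viability was read by CellTiter-Glo luminescence.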
Experiment [5] deals with T1, Pim1 kinase. The experiment in a line: Pim1 AlphaScreen assay (high ATP). (Bead proximity is the source of the signal in Alpha formats.)
Procedure: (§2) The activity of Pim 1, Pim 2, & Pim 3 is measured using a homogeneous bead based system quantifying the amount of phosphorylated peptide substrate resulting from kinase-catalyzed phosphoryl transfer to a peptide substrate. Compounds to be tested are dissolved in 100% DMSO and directly distributed to a white 384-well plate at 0.25 μl per well. […] This is followed by the addition of 5 μl/well of Pim 1, Pim 2 or Pim 3 kinase in assay buffer (concentrations described below). Final assay concentrations (described below) are in 2.5% DMSO. The reactions are performed for ˜2 hours, then stopped by the addition of 10 μl of 0.75 μg/ml anti-phospho Ser/Thr antibody (Cell Signaling), 10 μg/ml Protein A AlphaScreen beads (Perkin Elmer), and 10 μg/ml streptavidin coated AlphaScreen beads in stop/detection buffer (50 mM EDTA, 95 mM Tris, pH=7.5, 0.01% Tween-20). The stopped reactions are incubated overnight in the dark. The phosphorylated peptide is detected via an oxygen anion initiated chemiluminescence/fluorescence cascade using the Envision plate reader (Perkin Elmer).
Experiment [6] has as its target T2, Pim2 kinase. In words: Pim2 AlphaScreen assay (high ATP).
Procedure: as §2
The target in experiment [7] is T3, Pim3 kinase. In words: Pim3 AlphaScreen assay (high ATP).
Procedure: as §2

Where two headings read alike, the source gives them in different places. Bounds are passed on as bounds.

T2 sequence (Q9P1W9 whole entry): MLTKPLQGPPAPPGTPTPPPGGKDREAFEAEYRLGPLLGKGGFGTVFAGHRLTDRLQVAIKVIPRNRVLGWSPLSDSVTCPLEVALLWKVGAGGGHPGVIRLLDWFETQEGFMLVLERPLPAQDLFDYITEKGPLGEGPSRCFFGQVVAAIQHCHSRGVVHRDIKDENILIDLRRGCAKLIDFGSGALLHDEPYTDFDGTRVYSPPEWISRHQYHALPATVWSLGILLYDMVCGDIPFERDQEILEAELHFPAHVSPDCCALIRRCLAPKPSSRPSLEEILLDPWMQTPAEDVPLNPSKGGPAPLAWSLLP
T1 sequence (P11309 whole entry): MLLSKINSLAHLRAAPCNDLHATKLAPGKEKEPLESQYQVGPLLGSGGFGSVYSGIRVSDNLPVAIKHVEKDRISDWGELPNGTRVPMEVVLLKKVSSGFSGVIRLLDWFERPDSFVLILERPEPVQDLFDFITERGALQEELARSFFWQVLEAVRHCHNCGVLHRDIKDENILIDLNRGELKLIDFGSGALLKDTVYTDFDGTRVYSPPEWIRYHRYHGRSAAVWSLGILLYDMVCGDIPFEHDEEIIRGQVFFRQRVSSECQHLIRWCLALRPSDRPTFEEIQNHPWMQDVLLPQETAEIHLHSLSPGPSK

What is called IC50 is the concentration needed to halve the response being measured. Low readings indicate greater potency in that assay, high ones weaker potency in that assay. As a reminder, the EC50 is the concentration needed to bring the measured effect to its halfway point. `COc1cc(F)c(-c2cccc(C(=O)Nc3cnccc3[C@H]3C[C@@H](O)[C@](C)(O)[C@@H](C)C3)n2)c(F)c1` [Example 50, 6-(2,6-difluoro-4-methoxyphenyl)-N-(4-((1R,3R,4R,5S)-3,4-dihydroxy-4,5-dimethylcyclohexyl)pyridin-3-yl) picolinamide]: the IC50 on Pim1 kinase [1] is 0.6 nM; on Pim2 kinase [2] it was 3.5 nM; against Pim3 kinase [3] it was 1.5 nM. Besides, the 50% effective concentration (EC50) in experiment [4] (Table 4, 3 days) was 4780 nM.

`CC(=O)OC[C@]1(O)[C@H](C)C[C@H](c2ccncc2NC(=O)c2ccc(F)c(-c3c(F)cccc3F)n2)C[C@@H]1O` [Example 44, ((1R,2S,4S,6R)-4-(3-(6-(2,6-difluorophenyl)-5-fluoropicolinamido)pyridin-4-yl)-1,2-dihydroxy-6-methylcyclohexyl) methylacetate]: the figures for the IC50 against Pim1 kinase [1], on Pim2 kinase [2] and on Pim3 kinase [3] were 8.6 nM, 44.2 nM and 29.3 nM, respectively. The EC50 in experiment [4] (Table 4, 3 days) was not below 10000 nM.

As to `C[C@H]1C[C@@H](c2ccncc2NC(=O)c2ccc(F)c(-c3ccc(C#N)cc3F)n2)C[C@@H](O)[C@]1(C)O` [Example 54, 6-(4-cyano-2-fluorophenyl)-N-(4-((1R,3R,4R,5S)-3,4-dihydroxy-4,5-dimethylcyclohexyl)pyridin-3-yl)-5-fluoropicolinamide], the results for the IC50 at Pim1 kinase [1], against Pim2 kinase [2] and against Pim3 kinase [3] were 3.3 nM, 67.9 nM and 12.1 nM, respectively. For the same compound, the half-maximal effective concentration (EC50) in experiment [4] (Table 4, 3 days) was not below 10000 nM.

For `C[C@H]1C[C@@H](c2ccncc2NC(=O)c2cncc(-c3ccccc3)n2)C[C@@H](O)[C@]1(C)O` [Example 36, N-(4-((1R,3R,4R,5S)-3,4-dihydroxy-4,5-dimethylcyclohexyl)pyridin-3-yl)-6-phenylpyrazine-2-carboxamide], the IC50 on Pim1 kinase [1] was 525 nM; against Pim2 kinase [2] it was 5410 nM; against Pim3 kinase [3], 307 nM.

On to `C[C@H]1C[C@@H](c2ccncc2NC(=O)c2nc(-c3ccccc3)cnc2N)C[C@@H](O)[C@]1(C)O` [Example 37, 3-amino-N-(4-((1R,3R,4R,5S)-3,4-dihydroxy-4,5-dimethylcyclohexyl)pyridin-3-yl)-6-phenylpyrazine-2-carboxamide], for which the IC50 came out at 1.3 nM against Pim1 kinase [1], 4.9 nM against Pim2 kinase [2] and 2.5 nM against Pim3 kinase [3].

`C[C@H]1C[C@@H](c2ccncc2NC(=O)c2ccc(F)c(-c3ccc(F)c(F)c3)n2)C[C@@H](O)[C@]1(C)O` [Example 31, 6-(3,4-difluorophenyl)-N-(4-((1R,3R,4R,5S)-3,4-dihydroxy-4,5-dimethylcyclohexyl)pyridin-3-yl)-5-fluoropicolinamide]: the IC50 against Pim2 kinase [2] stood at 93.4 nM; against Pim1 kinase [5] it was 215 nM; against Pim2 kinase [6], 22100 nM; on Pim3 kinase [7] it was 5480 nM. Also, the EC50 in experiment [4] (Table 4, 3 days) is not below 10000 nM; in experiment [4] (Table 5, 3 days) it was more than 10000 nM.

On to `CCOc1cccc(-c2ccc(N)c(C(=O)Nc3cnccc3[C@H]3C[C@@H](O)[C@](C)(O)[C@@H](C)C3)n2)n1` [Example 127, 5-amino-N-(4-((1R,3R,4R,5S)-3,4-dihydroxy-4,5-dimethylcyclohexyl)pyridin-3-yl)-6′-ethoxy-2,2′-bipyridine-6-carboxamide], for which the half-inhibitory concentration (IC50) amounted to 20 nM against Pim2 kinase [2], 11.9 nM at Pim1 kinase [5], 9180 nM at Pim2 kinase [6] and 619 nM against Pim3 kinase [7]. Further, the EC50 in experiment [4] (Table 4, 3 days) came to 1390 nM; in experiment [4] (Table 5, 3 days), 1390 nM.

`C[C@H]1C[C@@H](c2ccncc2NC(=O)c2nc(-c3cc(F)ccn3)ccc2N)C[C@@H](O)[C@]1(C)O` [Example 132, 5-amino-N-(4-((1R,3R,4R,5S)-3,4-dihydroxy-4,5-dimethylcyclohexyl)pyridin-3-yl)-4′-fluoro-2,2′-bipyridine-6-carboxamide]: the 50% inhibitory concentration (IC50) on Pim2 kinase [2] was 162 nM; on Pim1 kinase [5] it was 2530 nM; against Pim2 kinase [6], more than 25000 nM; on Pim3 kinase [7], more than 25000 nM. Further, the EC50 in experiment [4] (Table 4, 3 days) is 7140 nM; in experiment [4] (Table 5, 3 days), 7140 nM.

Consider `C[C@H]1C[C@@H](c2ccncc2NC(=O)c2nc(-c3ncccc3F)c(F)cc2N)C[C@@H](O)C1(C)O` (stereo in doubt) [Example 130, 5-amino-N-(4-((1R,3R,4R,5S)-3,4-dihydroxy-4,5-dimethylcyclohexyl)pyridin-3-yl)-3,3′-difluoro-2,2′-bipyridine-6-carboxamide], for which the IC50 against Pim2 kinase [2] came out at 8.8 nM; against Pim1 kinase [5], 9.82 nM; against Pim2 kinase [6] it was 2140 nM; on Pim3 kinase [7], 383 nM. In addition, the concentration giving a half-maximal response (EC50) in experiment [4] (Table 4, 3 days) turned out to be 8960 nM; in experiment [4] (Table 5, 3 days) it was 8960 nM.

Take `CC[C@]1(O)[C@H](O)C[C@H](c2ccncc2NC(=O)c2ccc(F)c(-c3c(F)cccc3F)n2)C[C@@H]1C` [Example 41, 6-(2,6-difluorophenyl)-N-(4-((1R,3R,4R,5S)-4-ethyl-3,4-dihydroxy-5-methylcyclohexyl)pyridin-3-yl)-5-fluoropicolinamide]: the IC50 at Pim1 kinase [1] was 0.9 nM; at Pim2 kinase [2], 2.3 nM; on Pim3 kinase [3], 2.9 nM.

Consider `CC(=O)c1ccc(F)c(-c2ccc(N)c(C(=O)Nc3cnccc3[C@H]3C[C@@H](O)[C@](C)(O)[C@@H](C)C3)n2)n1` [Example 133, 6′-acetyl-5-amino-N-(4-((1R,3R,4R,5S)-3,4-dihydroxy-4,5-dimethylcyclohexyl)pyridin-3-yl)-3′-fluoro-2,2′-bipyridine-6-carboxamide], for which the IC50 against Pim2 kinase [2] is 5.4 nM; against Pim1 kinase [5] it was 7.19 nM; against Pim2 kinase [6], 2630 nM; against Pim3 kinase [7] it was 182 nM. The EC50 in experiment [4] (Table 4, 3 days) was determined as 5370 nM; in experiment [4] (Table 5, 3 days), 5370 nM.

In the case of `C[C@@H]1C[C@H](c2ccncc2NC(=O)c2ccc(F)c(-c3c(F)cccc3F)n2)C[C@H](O)[C@]1(O)CF` [Example 29, 6-(2,6-difluorophenyl)-5-fluoro-N-(4-((1S,3S,4S,5R)-4-(fluoromethyl)-3,4-dihydroxy-5-methylyclohexyl)pyridin-3-yl) picolinamide], the IC50 against Pim2 kinase [2] came to 14.9 nM; against Pim1 kinase [5] it was 6.7 nM; against Pim2 kinase [6], 428 nM; against Pim3 kinase [7], 201 nM. Besides, the EC50 in experiment [4] (Table 4, 3 days) amounted to 3270 nM; in experiment [4] (Table 5, 3 days), 3270 nM.

For `C[C@H]1C[C@@H](c2ccncc2NC(=O)c2nc(-c3cccc(F)n3)c(F)cc2N)C[C@@H](O)[C@]1(C)O` [Example 126, 5-amino-N-(4-((1R,3R,4R,5S)-3,4-dihydroxy-4,5-dimethylcyclohexyl)pyridin-3-yl)-3,6′-difluoro-2,2′-bipyridine-6-carboxamide], the IC50 worked out at 43.1 nM on Pim2 kinase [2], 40.1 nM against Pim1 kinase [5], 14200 nM on Pim2 kinase [6] and 3520 nM against Pim3 kinase [7]. Besides, the EC50 came to 8030 nM in experiment [4] (Table 4, 3 days) and 8030 nM in experiment [4] (Table 5, 3 days).

Take `C[C@H]1C[C@@H](c2ccncc2NC(=O)c2ccc(F)c(-c3c(F)cccc3F)n2)C[C@@H](O)[C@@]1(O)CF` [Example 30, 6-(2,6-difluorophenyl)-5-fluoro-N-(4-((1R,3R,4R,5S)-4-(fluoromethyl)-3,4-dihydroxy-5-methylcyclohexyl)pyridin-3-yl) picolinamide]: the IC50 on Pim2 kinase [2] is 2.2 nM; against Pim1 kinase [5] it was 0.71 nM; at Pim2 kinase [6], 50.1 nM; at Pim3 kinase [7] it was 22.8 nM. For the same compound, the EC50 came out at 130 nM in experiment [4] (Table 4, 3 days) and 133 nM in experiment [4] (Table 5, 3 days).

In the case of `C[C@H]1C[C@@H](c2ccncc2NC(=O)c2nc(-c3nc(Cl)c(C#N)cc3F)ccc2N)C[C@@H](O)[C@]1(C)O` [Example 131, 5-amino-6′-chloro-5′-cyano-N-(4-((1R,3R,4R,5S)-3,4-dihydroxy-4,5-dimethylcyclohexyl)pyridin-3-yl)-3′-fluoro-2,2′-bipyridine-6-carboxamide], the IC50 at Pim2 kinase [2] was 51.6 nM; at Pim1 kinase [5] it was 146 nM; against Pim2 kinase [6], 17000 nM; at Pim3 kinase [7], 5090 nM. Further, the EC50 in experiment [4] (Table 4, 3 days) is not below 10000 nM; in experiment [4] (Table 5, 3 days), more than 10000 nM.
